This is an account of results in patent publication US4499083A, “3-O-Demethyl derivatives of the istamycin B series of compounds” (Zaidan Hojin Biseibutsu Kagaku Kenkyu Kai, priority 1980, dated 1985).

Molecules are shown by their SMILES. In brackets after ≈: the same amount, converted by molar mass. Read-outs that look alike come from different tables or passages of the source.

Data set [1] concerns Pseudomonas aeruginosa H11. In words: Antibacterial spectrum, MIC by serial dilution on nutrient agar. In kind it is cell-based. Particulars: 37° C., 17 hours, read-out: Minimum inhibitory concentration.
Data set [2] concerns Bacillus subtilis PCI 219. Described as above. In kind it is cell-based. Particulars: read-out: Minimum inhibitory concentration.
Data set [3] concerns Bacillus subtilis NRRL B-558. The data set is described as above. In kind it is cell-based. Particulars: read-out: Minimum inhibitory concentration.
The subject of data set [4] is mice. In words: Acute toxicity by intravenous injection in mice.
The subject of data set [5] is Pseudomonas aeruginosa GN315. In words: Antibacterial spectrum, MIC by serial dilution on nutrient agar. In kind it is cell-based. Particulars: 37° C., 17 hours, read-out: Minimum inhibitory concentration.
Data set [6] concerns Shigella dysenteriae JS11910. The description is as above. In kind it is cell-based. The note with it: JS11910, 17 h, read-out: Minimum inhibitory concentration.
Data set [7] has as its system Pseudomonas aeruginosa K-Ps 102. The description is as above. Format: cell-based. The note with it: read-out: Minimum inhibitory concentration.
For data set [8], the system named is Serratia marcescens. Described as above. The note with it: read-out: Minimum inhibitory concentration. Format: cell-based.
Data set [9] relates to Escherichia coli K-12 ML1410 R81. The description is as above. Particulars: K12ML1410R81, 17 h, read-out: Minimum inhibitory concentration. In kind it is cell-based.
The test system of data set [10] is Escherichia coli K-12 C600 R135. The description is as above. In kind it is cell-based. Particulars: K12C600R135, 37° C., 17 hours, read-out: Minimum inhibitory concentration. The procedure:
(§1) The antibacterial spectra of 3-O-demethylistamycin B.sesquicarbonate and 3-O-demethyl-2"-N-formimidoylistamycin B.disulphate.trihydrate are shown in Table 2, along with that of istamycin B for comparison purposes.
(§2) Minimum inhibitory concentrations (mcg/ml)*^1
(§3) *^1 Determined according to a standard serial dilution method on
(§4) nutrient agar plates which were incubated at 37° C. for 17 hours.

For data set [11], the system named is Escherichia coli K-12 ML1630. Described as above. Particulars: K12ML1630, 37° C., 17 hours, read-out: Minimum inhibitory concentration. In kind it is cell-based. The procedure: as §1, §2, §3, §4
Data set [12] concerns Escherichia coli K-12 ML1629. The data set is described as above. In kind it is cell-based. Particulars: K12ML1629, 37° C., 17 hours, read-out: Minimum inhibitory concentration. The procedure: as §1, §2, §3, §4
Data set [13] concerns Shigella sonnei JS11746. The description is as above. In kind it is cell-based. Particulars: 37° C., 17 hours, read-out: Minimum inhibitory concentration. The procedure: as §1, §2, §3, §4
Data set [14] concerns Shigella flexneri 4B JS11811. Described as above. Format: cell-based. The note with it: 4BJS11811, 37° C., 17 hours, read-out: Minimum inhibitory concentration. The procedure:
as §1, §2, §3, §4

Data set [15] relates to Klebsiella pneumoniae 22#3038. Described as above. In kind it is cell-based. The note with it: 37° C., 17 hours, read-out: Minimum inhibitory concentration. The procedure: as §1, §2, §3, §4
The nature of data set [16]: in vivo. Particulars: mouse, iv.
The subject of data set [17] is Gram-negative and Gram-positive bacteria. As to the kind of experiment: Antibacterial activity, overall statement. Format: cell-based. The procedure:
as §1, §3, §4

Data set [18] deals with Pseudomonas aeruginosa B-13. In words: Antibacterial spectrum, MIC by serial dilution on nutrient agar. The note with it: B13, 37° C., 17 hours, read-out: Minimum inhibitory concentration. Format: cell-based.
The test system of data set [19] is Serratia sp. 4. The data set is described as above. Format: cell-based. The note with it: 37° C., 17 hours, read-out: Minimum inhibitory concentration.
Data set [20] concerns Pseudomonas aeruginosa PST1. The data set is described as above. Particulars: 37° C., 17 hours, read-out: Minimum inhibitory concentration. Format: cell-based.
Data set [21] deals with Pseudomonas maltophilia GN 907. Described as above. Format: cell-based. Particulars: Stenotrophomonas maltophilia, GN907, 37° C., 17 hours, read-out: Minimum inhibitory concentration.
For data set [22], the system named is Pseudomonas aeruginosa. In words: Antibacterial activity against Pseudomonas aeruginosa. Format: cell-based.
For data set [23], the system named is resistant bacteria. In words: Antibacterial activity against resistant bacteria. In kind it is cell-based.
Data set [24] concerns Gram-negative and Gram-positive bacteria. Particulars: relative to istamycin A; earlier work; cited from earlier work.
Where [25] appears, read: PCI219, Bacillus subtilis PCI 219, nutrient agar, 37° C., 17 hours.
The mark [26] stands for this setting: NRRLB558, Bacillus subtilis NRRL B-558, nutrient agar, 37° C., 17 hours.
Setting [27] is: KPS102, Pseudomonas aeruginosa K-Ps 102, nutrient agar, 37° C., 17 hours.
Setting [28] is: listed as 3-O-demethylistamycin B.
The mark [29] stands for this setting: nutrient agar, 37° C., 17 hours.

Turning to `CNCC1CCC(N)C(OC2C(N)CC(O)C(N(C)C(=O)CNC=N)C2O)O1` (centres unmarked) [3-O-Demethyl-2"-N-formimidoylistamycin B], the MIC is 25 µg/mL (≈ 62.1 µM) in data set [1]; less than 0.2 µg/mL in data set [2] (setting [25]); less than 0.2 µg/mL in data set [3] (setting [26]); 6.25 µg/mL (≈ 15.5 µM) in data set [5]; 3.13 µg/mL (≈ 7.78 µM) in data set [6]; 12.5 µg/mL (≈ 31.1 µM) in data set [7] (setting [27]). For the same compound, the MIC in data set [8] (17 h) stood at 3.13 µg/mL (≈ 7.78 µM); in [9], 1.56 µg/mL (≈ 3.88 µM); in data set [10], 12.5 µg/mL (≈ 31.1 µM); in data set [11] it was 1.56 µg/mL (≈ 3.88 µM); in [12] it was 1.56 µg/mL (≈ 3.88 µM); in [13] it was 3.13 µg/mL (≈ 7.78 µM). The MIC is 3.13 µg/mL (≈ 7.78 µM) in data set [14]; 3.13 µg/mL (≈ 7.78 µM) in data set [15]; greater than 100 µg/mL in data set [18]; 6.25 µg/mL (≈ 15.5 µM) in [19]; 25 µg/mL (≈ 62.1 µM) in [20]; greater than 100 µg/mL in data set [21]. Besides, in [4], the “toxicity (in words)” value was “low toxicity to animals”. In addition, the MTD in data set [16] was 160 mg/kg. Moreover, in [17], the “antibacterial activity (in words)” value was “high antibacterial activity against a wide variety of Gram-negative and Gram-positive bacteria”.
As to `CNCC1CCC(N)C(OC2C(N)CC(O)C(N(C)C(=O)CN)C2O)O1` (centres unmarked) [3-O-Demethylistamycin B], the MIC in data set [1] was 25 µg/mL (≈ 66.6 µM); in [2] (Bacillus subtilis, PCI219, 17 h), less than 0.2 µg/mL; in data set [3] (Bacillus subtilis, NRRLB558, 17 h), less than 0.2 µg/mL; in data set [5] it was 12.5 µg/mL (≈ 33.3 µM); in [6] it was 6.25 µg/mL (≈ 16.6 µM); in data set [7] (Pseudomonas aeruginosa, KPS102, 17 h), 6.25 µg/mL (≈ 16.6 µM). The MIC in [8] (setting [29]) is 12.5 µg/mL (≈ 33.3 µM); in data set [9] it was 3.13 µg/mL (≈ 8.34 µM); in data set [10], 6.25 µg/mL (≈ 16.6 µM); in [11], 3.13 µg/mL (≈ 8.34 µM); in data set [12], 3.13 µg/mL (≈ 8.34 µM); in data set [13], 6.25 µg/mL (≈ 16.6 µM). In addition, the MIC in data set [14] is 6.25 µg/mL (≈ 16.6 µM); in data set [15], 6.25 µg/mL (≈ 16.6 µM); in data set [18], 50 µg/mL (≈ 133 µM); in [19], 12.5 µg/mL (≈ 33.3 µM); in [20], 50 µg/mL (≈ 133 µM); in data set [21] it was greater than 100 µg/mL. The “toxicity (in words)” value is “low toxicity to animals” in data set [4] and “low toxicity” in data set [4] (setting [28]). The “effectiveness against Pseudomonas aeruginosa (in words)” value in data set [22] was “effective against not only Pseudomonas aeruginosa”. Also, in data set [23], the “effectiveness against a variety of resistant bacteria (in words)” value is listed as “effective against not only Pseudomonas aeruginosa but also a variety of resistant bacteria”. The same compound returned an MTD in [16] of 160 mg/kg. The “antibacterial activity (in words)” value is “high antibacterial activity” in data set [17]; “high antibacterial activity against a wide variety of Gram-negative and Gram-positive bacteria” in [17] (setting [28]).
For `CNCC1CCC(N)C(OC2C(N)CC(OC)C(N(C)C(=O)CN)C2O)O1` (centres unmarked) [Istamycin B, istamycin B], the MIC in data set [1] is 50 µg/mL (≈ 128 µM); in [2] (setting [25]) it was less than 0.2 µg/mL; in data set [3] (setting [26]), less than 0.2 µg/mL; in data set [5], 50 µg/mL (≈ 128 µM); in data set [6] it was 3.13 µg/mL (≈ 8.04 µM); in data set [7] (setting [27]) it was 50 µg/mL (≈ 128 µM). Further, the MIC in data set [8] (setting [29]) was 6.25 µg/mL (≈ 16 µM); in data set [9], 1.56 µg/mL (≈ 4.01 µM); in data set [10], 12.5 µg/mL (≈ 32.1 µM); in data set [11], 1.56 µg/mL (≈ 4.01 µM); in [12], 1.56 µg/mL (≈ 4.01 µM); in data set [13] it was 3.13 µg/mL (≈ 8.04 µM). Also, the MIC in [14] is 3.13 µg/mL (≈ 8.04 µM); in [15], 3.13 µg/mL (≈ 8.04 µM); in data set [18], greater than 100 µg/mL; in data set [19] it was 50 µg/mL (≈ 128 µM); in [20] it was 100 µg/mL (≈ 257 µM); in [21] it was greater than 100 µg/mL. Also, the “antibacterial activity compared with istamycin A” value in data set [24] was “higher antibacterial activity than istamycin A”.
